The record followed here is patent publication US5470849A, “γ-turn peptidomimetics as fibrinogen antagonists” (SmithKline Beecham Corp., priority 1993, dated 1995).

Usually IC50 stands for the concentration at which inhibition is half-maximal. Read a high IC50 as a need for much substance.

One data set relates to dog platelets. Description: Inhibition of platelet aggregation (dog platelets, agonist-induced, Chrono-Log Lumi-Aggregometer). Format: cell-based. Particulars: Canis lupus familiaris, stimulated by ADP, between about. How it is done: (§1) Blood was collected (citrated to prevent coagulation) from, naive, adult mongrel dogs. Platelet rich plasma, PRP, was prepared by centrifugation at 150×g for 10 min at room temperature. Washed platelets were prepared by centrifuging PRP at 800×g for 10 min. The cell pellet thus obtained was washed twice in Tyrode's buffer (pH 6.5) without Ca^++ and resuspended in Tyrode's buffer (pH 7.4) containing 1.8 mM Ca^++ at 3×10^5 cells/mL. Peptides were added 3 min. prior to the agonist in all assays of platelet aggregation. Final agonist concentrations were 0.1 unit/mL thrombin and […] (Sigma). Aggregation was monitored in a Chrono-Log Lumi-Aggregometer. Light transmittance 5 min after addition of the agonist was used to calculate percent aggregation according to the formula % aggregation =[(90-CR)[…]]×100, where CR is the chart reading, 90 is the baseline, and 10 is the PRP blank reading. IC50 's were determined by plotting [% inhibition of aggregation] vs. [concentration of peptide]. Peptides were assayed at 200 μM and diluted sequentially by a factor of 2 to establish a suitable dose response curve.

A short description of data set [1]: Stability of the peptide to plasma proteases in platelet-rich plasma (3 h incubation prior to agonist). Particulars: up to 3 h. Format: in vitro ADME, dog. How it is done: as §1
To assess the stability of the peptide to plasma proteases, the peptides were incubated for 3 h (rather than 3 min) in the PRP prior to addition of the agonist.

In the data set on dog platelets, `CN(C(=O)c1ccccc1)[C@@H](CCCNC(=N)N)C(=O)NCC1=CC(CC(=O)O)C(=O)N(c2ccccc2)CC1` (stereo partly shown) [Example 1, 1-phenyl-2-oxo-3-carboxymethyl-5-[(N-benzoyl-N-methyl-arginylamino)methyl]-2,3,6,7-tetrahydro-1H-azepine] returned an IC50 of 0.5 to 1.5 µM. Besides, in data set [1], the “stability in platelet-rich plasma” value is “stable in platelet-rich plasma for up to 3 h”.
The corresponding values for `CC(=O)N(C)[C@@H](CCCNC(=N)N)C(=O)NCC1=CC(CC(=O)O)C(=O)N(c2ccccc2)CC1` (stereo partly shown) [Example 2, 1-phenyl-2-oxo-3-carboxymethyl-5-[acetyl-(N-methylarginyl)-aminomethyl]-2,3,6,7-tetrahydro-1H-azepine] are 0.5 to 1.5 µM and “stable in platelet-rich plasma for up to 3 h”.
